For experiment [1], the system named is formation of thrombus (rat arteriovenous bypass). Put plainly: Antithrombotic activity via intravenous administration, rat arteriovenous bypass cannula with thread. To be noted: rat, 5Aa-p (i.v.) 0.1 nmol/kg, 15 minutes, n = 10. The experiment is classed as in vivo, male SD rats. The source says: A cannula was composed of 3 segments. The middle segment has a length of 80 mm and an inner diameter of 3.5 mm. […] The pre-weighed, 60 mm in length thread was placed in the middle segment of the polyethylene tube. Both ends of the wider tube sheathed the un-narrowed ends of two polyethylene tubes respectively (0.5 mm of the thread was restrained by one of the segment to fix the thread). The cannula was filled with a heparin solution in normal saline (50 IU/kg) through the tip end by using an injector and was ready for use. 200-220 g male SD rats were anesthetized with 20% urethane solution (6 mL/kg, ip). Anesthetized rats were fixed in a supine position, and the left external jugular vein was separated and penetrated with a suture at the proximal and distal ends respectively, and the distal end was ligated. An incision was carefully made on the exposed left external jugular vein, and the tip end without thread-restraining of the bypass cannula prepared as described above was inserted into the proximal end of the open incision in the left external jugular vein. A precise amount of heparin in normal saline (50 IU/kg) was injected through the tip at the other end by using an injector. Then, the injector was replaced, and precise amount of drug was injected by the same way. At this moment, without removing the injector from the ethylene tube, the right common carotid artery was separated, and the proximal end was clipped by an artery clip. The right common carotid artery was penetrated with a suture at the proximal and distal ends respectively, and the distal end was ligated. An incision was carefully cut across the right common carotid artery near the artery clip. The injector was pulled out of the polyethylene tube through the tip, and the tip of the polyethylene tube was then inserted into the proximal end of the artery incision. Both ends of the bypass cannula were fixed to the artery or vein with #4 sutures. The artery clip was then removed to allow blood to flow from the artery to the vein through the bypass cannula. A rat arteriovenous bypass thrombolysis model was thus established. The process was timed from the beginning of circulation, the thread attached with thrombus was taken out from the bypass cannula after 15 minutes and accurately weighed. The difference in the mass of the thread before and after was determined as the wet weight of the thrombus, which was statistically analyzed and used to evaluate the in vivo antithrombotic activities of the compounds. The wet weight of the thrombus was expressed as average value and standard deviation (x±SD). The drug administration method is intravenous injection. The blank control was normal saline solution, and the dose was 1 mL/kg. The positive control was aspirin, and the dose was 9 mg/kg. The dose of compounds 5Aa-p of the present invention was 0.1 nmol/kg. The method was the same as in example 3. The drug administration method is intravenous injection. The blank control was normal saline solution, and the dose was 3 mL/kg. The positive control was aspirin, and the dose was 9 mg/kg.

Experiment [2] can be described thus: Hydroxyl free radical scavenging activity (DMPO signal peak height). To be noted: n = 6; read-out: EC50 of scavenging •OH. The experiment is classed as biochemical. The protocol: 11.316 mg DMPO ([…], Sigma) was dissolved in 1 mL of pure water to obtain 0.1 M DMPO solution. […] FeSO4.7H2O was dissolved in 1 mL of pure water to obtain 10 mM solution. 30% medical H2O2 was diluted to 0.2%.
The first peak height of the OH signal of 2.5 μL FeSO4.7H2O solution+2.5 μL DMPO solution+5 μL H2O2 solution+5 μL water was measured and repeated for 6 times. This peak height defined as the known peak height of OH signal. The first peak height of the OH signal of 2.5 μL FeSO4.7H2O solution+2.5 μL DMPO solution+5 μL H2O2 solution+5 μL solution of one of the compounds 5Aa-p was measured and repeated for 6 times. This peak height defined as the residual peak height of the OH signal scavenged by one of the compounds 5Aa-p. Scavenging ratio=(known peak height of OH signal−residual peak height of OH signal of compounds 5Aa-p)/known peak height of OH signal

Experiment [3] in a line: NO radical scavenging activity (MGD/SNAP signal peak height). The experiment is classed as biochemical. To be noted: n = 6. The protocol: 7.325 mg MGD (N-methyl-glucamine dithiocarbamate, Sigma) was dissolved in 1 mL of pure water to obtain 25 mM MGD solution. […] FeSO4.7H2O was dissolved in 1 mL of pure water to obtain 12.5 mM solution. […] SNAP (S-Nitroso-acetyl penicillamine) was dissolved in 1 mL of pure water to obtain 110 μM green mother liquid, which was diluted 100 folds to obtain 1 μM SNAP solution.
The first peak height of NO signal of 5 μL MGD solution+5 μL FeSO4.7H2O solution+5 μL SNAP solution+5 μL water was measured and repeated for 6 times. This peak height defined as the known peak height of NO signal. The first peak height of NO signal of 5 μL MGD solution+5 μL FeSO4.7H2O solution+5 μL SNAP solution+5 μL solution of one of the compounds 5Aa-p was measured and repeated for 6 times. This peak height defined as the residual peak height of the NO signal scavenged by one of the compounds 5Aa-p. Scavenging ratio=(known peak height of NO signal−residual peak height of NO signal of compounds 5Aa-p)/known peak height of NO signal

Experiment [4] in a line: Superoxide anionic radical scavenging activity (xanthine/xanthine oxidase, DMPO). It is filed as biochemical. To be noted: n = 6. Here is the method: […] xanthine was dissolved in 1 mL of pure water to obtain 0.5 M xanthine solution (milk white color, largely insoluble). Commercially available raw solution of xanthine oxidase was diluted 10 folds to obtain solution of xanthine oxidase. Saturated DETAPAC solution was diluted 20 folds to obtain 0.9 mM solution. 11.316 mg DMPO was dissolved in 1 mL of pure water to obtain 0.1 M DMPO solution.
5 μL DMPO solution+5 μL DETAPAC solution+5 μL xanthine solution+5 μL xanthine oxidase solution+5 μL compounds 5Aa-p solution
The first peak height of superoxide anion signal of 5 μL DMPO solution+5 μL DETAPAC solution+5 μL xanthine solution+5 μL xanthine oxidase solution+5 μL water was measured and repeated for 6 times. This peak height defined as the known peak height of superoxide anion signal. The first peak height of superoxide anion signal of 5 μL DMPO solution+5 μL DETAPAC solution+5 μL xanthine solution+5 μL xanthine oxidase solution+5 μL solution of one of compounds 5Aa-p was measured and repeated for 6 times. This peak height defined as the residual peak height of the superoxide anion signal scavenged by one of the compounds 5Aa-p. Scavenging ratio=(known peak height of superoxide anion signal−residual peak height of superoxide anion signal of compounds 5Aa-p)/known peak height of superoxide anion signal

Marks after values point to notes of the source that are not given here.

Turning to `C[C@H](NC(=O)[C@@H]1CCCN1)C(=O)N[C@@H](CCC(N)=O)C(=O)NCCCC[C@H](NC(=O)[C@@H]1Cc2cc(O)c(O)cc2C(C)(C)N1)C(=O)O` [Compound 5Am, 3S-6,7-dihydroxy-1,1-dimethyl-1,2,3,4-tetrahydro-isoquinoline-3-acyl-Lys(Pro-Ala-Gln)], the “wet weight of thrombus” value in experiment [1] is 58.14 ± 2.30^a mg. Besides, the EC50 (commonly the concentration that produces a half-maximal response) in experiment [2] stood at 466 ± 77 µM; in experiment [3], 647 ± 88 µM; in experiment [4] it was 371 ± 45 µM.

On to `C[C@H](NC(=O)[C@@H]1CCCN1)C(=O)N[C@@H](CC(N)=O)C(=O)NCCCC[C@H](NC(=O)[C@@H]1Cc2cc(O)c(O)cc2C(C)(C)N1)C(=O)O` [Compound 5An, 3S-6,7-dihydroxy-1,1-dimethyl-1,2,3,4-tetrahydro-isoquinoline-3-acyl-Lys(Pro-Ala-Asn)], for which the “wet weight of thrombus” value in experiment [1] is 55.11 ± 4.76^a mg. Also, the EC50 in experiment [2] was found to be 572 ± 72 µM; in experiment [3] it was 659 ± 89 µM; in experiment [4], 383 ± 94 µM.

As for `C[C@H](NC(=O)[C@@H]1CCCN1)C(=O)N[C@@H](CC(=O)O)C(=O)NCCCC[C@H](NC(=O)[C@@H]1Cc2cc(O)c(O)cc2C(C)(C)N1)C(=O)O` [Compound 5Ao, 3S-6,7-dihydroxy-1,1-dimethyl-1,2,3,4-tetrahydro-isoquinoline-3-acyl-Lys(Pro-Ala-Asp)], the “wet weight of thrombus” value in experiment [1] is given as 48.34 ± 3.29^a mg. Besides, the concentration for a half-maximal effect (EC50) stood at 396 ± 48 µM in experiment [2], 473 ± 99 µM in experiment [3] and 435 ± 65 µM in experiment [4].

On to `C[C@H](NC(=O)[C@@H]1CCCN1)C(=O)N[C@@H](CCC(=O)O)C(=O)NCCCC[C@H](NC(=O)[C@@H]1Cc2cc(O)c(O)cc2C(C)(C)N1)C(=O)O` [Compound 5Ap, 3S-6,7-dihydroxy-1,1-dimethyl-1,2,3,4-tetrahydro-isoquinoline-3-acyl-Lys(Pro-Ala-Glu)], for which the “wet weight of thrombus” value in experiment [1] is 49.97 ± 6.32^a mg. In addition, the results for the concentration giving a half-maximal response (EC50) in experiment [2], in experiment [3] and in experiment [4] were 400 ± 51 µM, 477 ± 91 µM and 420 ± 73 µM, respectively.

Source of the values: patent US10351594B2, “Process for preparing compounds having triple activities of thrombolysis, antithrombosis, and radical scavenging” (Shanghai Lumosa Therapeutics Co., Ltd., priority 2013, dated 2019).
